Values quoted from earlier work in patent publication US20090162488A1, “BEVERAGE PRODUCTS AND FLAVOR SYSTEMS HAVING A NON-SWEETENING AMOUNT OF MONATIN” (The Concentrate Manufacturing Company of Ireland, priority 2007, published 2009).
Peptide text beside a SMILES is read from it.

settings: commonly accepted potency figures; weight basis versus sugar

| Structure (SMILES) | potency figures: times as sweet as sugar |
| --- | --- |
| CC1=CC(=O)NS(=O)(=O)O1 [Acesulfame-K] | 200 times as sweet as sugar |
| C[C@@H](NC(=O)[C@@H](N)CC(=O)O)C(=O)NC1C(C)(C)SC1(C)C [Alitame] | 2,000 times as sweet as sugar |
| COC(=O)[C@H](Cc1ccccc1)NC(=O)[C@@H](N)CC(=O)O [Aspartame] (H-Asp-Phe-OMe) | 200 times as sweet as sugar |
| CC1(C)[C@@H](O[C@H]2O[C@H](C(=O)O)[C@@H](O)[C@H](O)[C@H]2O[C@@H]2O[C@H](C(=O)O)[C@@H](O)[C@H](O)[C@H]2O)CC[C@]2(C)[C@H]3C(=O)C=C4[C@@H]5C[C@@](C)(C(=O)O)CC[C@]5(C)CC[C@@]4(C)[C@]3(C)CC[C@@H]12 [Glycyrrhizin] | 30-50 times as sweet as sugar |
| C[C@H](CC[C@@H](O[C@@H]1O[C@H](CO[C@@H]2O[C@H](CO)[C@@H](O)[C@H](O)[C@H]2O)[C@@H](O)[C@H](O)[C@H]1O[C@@H]1O[C@H](CO)[C@@H](O)[C@H](O)[C@H]1O)C(C)(C)O)[C@H]1CC[C@@]2(C)[C@@H]3CC=C4[C@@H](CC[C@H](O[C@@H]5O[C@H](CO[C@@H]6O[C@H](CO)[C@@H](O)[C@H](O)[C@H]6O)[C@@H](O)[C@H](O)[C@H]5O)C4(C)C)[C@]3(C)[C@H](O)C[C@]12C [Mogroside V] | 100-300 times as sweet as sugar |
| COc1ccc(CCC(=O)c2c(O)cc(O[C@@H]3O[C@H](CO)[C@@H](O)[C@H](O)[C@H]3O[C@@H]3O[C@@H](C)[C@H](O)[C@@H](O)[C@H]3O)cc2O)cc1O [Neohesperidin dihydrochalcone] | 300 times as sweet as sugar |
| COC(=O)[C@H](Cc1ccccc1)NC(=O)[C@H](CC(=O)O)NCCC(C)(C)C [Neotame] | 8,000 times as sweet as sugar |
| C=C1C[C@@]23CC[C@H]4[C@@](C)(CCC[C@@]4(C)C(=O)O[C@@H]4O[C@H](CO)[C@@H](O)[C@H](O)[C@H]4O)[C@@H]2CC[C@]1(O[C@@H]1O[C@H](CO)[C@@H](O)[C@H](O[C@@H]2O[C@H](CO)[C@@H](O)[C@H](O)[C@H]2O)[C@H]1O[C@@H]1O[C@H](CO)[C@@H](O)[C@H](O)[C@H]1O)C3 [Rebaudioside A] | 150-300 times as sweet as sugar |
| O=C1NS(=O)(=O)c2ccccc21 [Saccharin] | 300 times as sweet as sugar |
| C=C1C[C@@]23CC[C@H]4[C@@](C)(CCC[C@@]4(C)C(=O)O[C@@H]4O[C@H](CO)[C@@H](O)[C@H](O)[C@H]4O)[C@@H]2CC[C@]1(O[C@@H]1O[C@H](CO)[C@@H](O)[C@H](O)[C@H]1O[C@@H]1O[C@H](CO)[C@@H](O)[C@H](O)[C@H]1O)C3 [Stevioside] | 100-250 times as sweet as sugar |
| OC[C@H]1O[C@H](O[C@]2(CCl)O[C@H](CCl)[C@@H](O)[C@@H]2O)[C@H](O)[C@@H](O)[C@H]1Cl [Sucralose] | 600 times as sweet as sugar |

same assay, conditions: versus sugar (i.e., sucrose)

| Structure (SMILES) | sweetness potency |
| --- | --- |
| NC(CC(O)(Cc1c[nH]c2ccccc12)C(=O)O)C(=O)O (stereo not drawn) [Monatin, 2-hydroxy-2-(indol-3-lymethyl)-4-aminoglutaric acid] | about 2000 times as sweet as sugar |
